Measured values as given in patent publication US9498483B2, “2,3,5-trisubstituted thiophene compounds and uses thereof” (priority 2010, dated 2016).

Columns and labels:
[1] = system: HCV replicon I389luc-ubi-neo/NS3-3′/ET in ET (Huh-lucubineo-ET) cells; test: Replicon assay (Biological Example 2), luciferase readout; assay type: cell-based; conditions: Hepatitis C virus
Summary of the method: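 EC50 values come from Hill fits of % inhibition of replicon-driven firefly luciferase, relative to no-compound wells. Compounds were serially diluted (10 points, 3-fold, 0.1 nM–50 μM final, 0.5% DMSO) onto ET replicon cells and read after 48 h.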

HCV polymerase = target: T1, HCV polymerase (Hepatitis C virus genotype 1b, UniProt Q9WMX2); test: Polymerase assay of Biological Example 1 (IC50 values of Table 3); assay type: biochemical; conditions: IC50 values of Table 3, polymerase assay of Biological Example 1; read-out: NS5B-enzyme3
T1 construct: (His)6 (C); made in house; host or cells: XL-1 cells (E. coli, by own knowledge)

[2] = ET cells, luciferase activity 48 hours after compound

Row | Compound | IC50 [1, 2] [nM] | IC50 (HCV polymerase) [nM] | IC50 ([1]; between 100 nM and 5.0 uM) [nM]
1 | CC(C)(C)C#Cc1cc(N2C(=O)[C@@H](CC(O)CO)OC[C@H]2C2CCCCC2)c(C(=O)O)s1 (stereo partly drawn) [Compound 10, 3-[(2R,5R)-5-Cyclohexyl-2-(2,3-dihydroxy-propyl)-3-oxo-morpholin-4-yl]-5-(3,3-dimethyl-but-1-ynyl)-thiophene-2-carboxylic acid] | ≤ 100 | 3 | –
2 | CCc1ccc(S(=O)(=O)N2CC(=O)N(c3cc(-c4ccccc4)sc3C(=O)O)C(C3CCCCC3)C2)cc1 (single isomer, unassigned) [Compound 55, 3-[2-Cyclohexyl-4-(4-ethyl-benzenesulfonyl)-6-oxo-piperazin-1-yl]-5-phenyl-thiophene-2-carboxylic acid] | – | 71 | 100 to 5000
3 | Cc1ccc(-c2cc(N3C(=O)C(C)(C)OC[C@H]3C3CCCCC3)c(C(=O)O)s2)cc1 [Compound 314, 3-((R)-5-Cyclohexyl-2,2-dimethyl-3-oxo-morpholin-4-yl)-5-p-tolyl-thiophene-2-carboxylic acid] | ≤ 100 | 6 | –
4 | CC(C)(C)C#Cc1cc(N2C(=O)OCCC2C2CCCCC2)c(C(=O)O)s1 (stereo not shown) [Compound 308, 3-(4-Cyclohexyl-2-oxo-[1,3]oxazinan-3-yl)-5-(3,3-dimethyl-but-1-ynyl)-thiophene-2-carboxylic acid] | ≤ 100 | 14 | –
5 | O=C(O)c1sc(-c2ccccc2)cc1N1C(=O)CN(S(=O)(=O)c2ccc(-c3ccccc3)nc2)C[C@H]1C1CCCCC1 [Compound 178, 3-[(R)-2-Cyclohexyl-6-oxo-4-(6-phenyl-pyridine-3-sulfonyl)-piperazin-1-yl]-5-phenyl-thiophene-2-carboxylic acid] | – | 1 | 100 to 5000
6 | Cc1ccc(-c2cc(N3C(=O)CN(S(=O)(=O)c4cnn(C)c4)C[C@H]3C3CCCCC3)c(C(=O)O)s2)cc1 [Compound 295, 3-[(R)-2-Cyclohexyl-4-(1-methyl-1H-pyrazole-4-sulfonyl)-6-oxo-piperazin-1-yl]-5-p-tolyl-thiophene-2-carboxylic acid] | ≤ 100 | 4 | –
7 | C[C@@H]1COCCN1c1ccc(S(=O)(=O)N2CC(=O)N(c3cc(-c4ccc(Cl)cc4)sc3C(=O)O)[C@H](C3CCCCC3)C2)cn1 [Compound 226, 5-(4-Chloro-phenyl)-3-{(R)-2-cyclohexyl-4-[6-((R)-3-methyl-morpholin-4-yl)-pyridine-3-sulfonyl]-6-oxo-piperazin-1-yl}-thiophene-2-carboxylic acid] | ≤ 100 | 9 | –
8 | O=C(O)c1sc(-c2ccccc2)cc1N1C(=O)CN(S(=O)(=O)c2ccc(N3CCN[C@H](CO)C3)nc2)C[C@H]1C1CCCCC1 [Compound 139, 3-{(R)-2-Cyclohexyl-4-[6-((S)-3-hydroxymethyl-piperazin-1-yl)-pyridine-3-sulfonyl]-6-oxo-piperazin-1-yl}-5-phenyl-thiophene-2-carboxylic acid] | – | 1 | 100 to 5000
9 | CC(O)C1CCC(C2CCCCC2)N(c2cc(C#CC(C)(C)C)sc2C(=O)O)C1=O (stereo not shown) [Compound 316, 3-[6-Cyclohexyl-3-(1-hydroxy-ethyl)-2-oxo-piperidin-1-yl]-5-(3,3-dimethyl-but-1-ynyl)-thiophene-2-carboxylic acid] | ≤ 100 | 3 | –
10 | O=C(O)c1sc(-c2ccccc2)cc1N1C(=O)CN(S(=O)(=O)c2ccc(N3CC[C@@H](O)C3)nc2)CC1C1CCCCC1 (stereo partly drawn) [Compound 123, 3-{2-Cyclohexyl-4-[6-((R)-3-hydroxy-pyrrolidin-1-yl)-pyridine-3-sulfonyl]-6-oxo-piperazin-1-yl}-5-phenyl-thiophene-2-carboxylic acid] | ≤ 100 | 2 | –
11 | O=C(O)c1sc(-c2ccc(F)cc2)cc1N1C(=O)CN(S(=O)(=O)c2ccc(N3CCC(F)(F)C3)nc2)C[C@H]1C1CCCCC1 [Compound 286, 3-{(R)-2-Cyclohexyl-4-[6-(3,3-difluoro-pyrrolidin-1-yl)-pyridine-3-sulfonyl]-6-oxo-piperazin-1-yl}-5-(4-fluoro-phenyl)-thiophene-2-carboxylic acid] | ≤ 100 | 1 | –
